Results taken from article PMC7980221 (Molecular Cell, 2021).
Read-outs that look alike come from different tables or passages of the source.

Columns and labels:
[1] = target: NavMs E227D mutant channel (Magnetococcus marinus, UniProt A0L5S6, E227D); experiment: cell-based
hNav1.2 = hNav1.2 (Homo sapiens, UniProt Q99250); experiment: Whole-cell patch-clamp INa inhibition, hNav1.2 in HEK293 cells; format: cell-based
[2] = test system: endogenous sodium currents of MDA-MB-231 cells (nNav1.5, Nav1.7); experiment: Voltage clamp of endogenous sodium currents in MDA-MB-231 cells; format: cell-based; conditions: Homo sapiens, MDA-MB-231, read-out: Potency of sodium current inhibition (IC50), MDA-MD-231 cells
[3] = target: NavMs D220E mutant channel (Magnetococcus marinus, UniProt A0L5S6, D220E); experiment: cell-based; format: cell-based
[4] = cited from earlier work
NavMs [5] = target: T1, NavMs (Magnetococcus marinus, UniProt A0L5S6); experiment: cell-based
NavMs [6] = target: T1, NavMs; experiment: Mechanism and kinetics of NavMs INa inhibition; format: cell-based
ER = conditions: cited from earlier work
[7] = target: NavMs F208L mutant (NavMsL) (Magnetococcus marinus) (UniProt A0L5S6); experiment: crystal structure

Chain of hNav1.2 (Q99250 whole entry): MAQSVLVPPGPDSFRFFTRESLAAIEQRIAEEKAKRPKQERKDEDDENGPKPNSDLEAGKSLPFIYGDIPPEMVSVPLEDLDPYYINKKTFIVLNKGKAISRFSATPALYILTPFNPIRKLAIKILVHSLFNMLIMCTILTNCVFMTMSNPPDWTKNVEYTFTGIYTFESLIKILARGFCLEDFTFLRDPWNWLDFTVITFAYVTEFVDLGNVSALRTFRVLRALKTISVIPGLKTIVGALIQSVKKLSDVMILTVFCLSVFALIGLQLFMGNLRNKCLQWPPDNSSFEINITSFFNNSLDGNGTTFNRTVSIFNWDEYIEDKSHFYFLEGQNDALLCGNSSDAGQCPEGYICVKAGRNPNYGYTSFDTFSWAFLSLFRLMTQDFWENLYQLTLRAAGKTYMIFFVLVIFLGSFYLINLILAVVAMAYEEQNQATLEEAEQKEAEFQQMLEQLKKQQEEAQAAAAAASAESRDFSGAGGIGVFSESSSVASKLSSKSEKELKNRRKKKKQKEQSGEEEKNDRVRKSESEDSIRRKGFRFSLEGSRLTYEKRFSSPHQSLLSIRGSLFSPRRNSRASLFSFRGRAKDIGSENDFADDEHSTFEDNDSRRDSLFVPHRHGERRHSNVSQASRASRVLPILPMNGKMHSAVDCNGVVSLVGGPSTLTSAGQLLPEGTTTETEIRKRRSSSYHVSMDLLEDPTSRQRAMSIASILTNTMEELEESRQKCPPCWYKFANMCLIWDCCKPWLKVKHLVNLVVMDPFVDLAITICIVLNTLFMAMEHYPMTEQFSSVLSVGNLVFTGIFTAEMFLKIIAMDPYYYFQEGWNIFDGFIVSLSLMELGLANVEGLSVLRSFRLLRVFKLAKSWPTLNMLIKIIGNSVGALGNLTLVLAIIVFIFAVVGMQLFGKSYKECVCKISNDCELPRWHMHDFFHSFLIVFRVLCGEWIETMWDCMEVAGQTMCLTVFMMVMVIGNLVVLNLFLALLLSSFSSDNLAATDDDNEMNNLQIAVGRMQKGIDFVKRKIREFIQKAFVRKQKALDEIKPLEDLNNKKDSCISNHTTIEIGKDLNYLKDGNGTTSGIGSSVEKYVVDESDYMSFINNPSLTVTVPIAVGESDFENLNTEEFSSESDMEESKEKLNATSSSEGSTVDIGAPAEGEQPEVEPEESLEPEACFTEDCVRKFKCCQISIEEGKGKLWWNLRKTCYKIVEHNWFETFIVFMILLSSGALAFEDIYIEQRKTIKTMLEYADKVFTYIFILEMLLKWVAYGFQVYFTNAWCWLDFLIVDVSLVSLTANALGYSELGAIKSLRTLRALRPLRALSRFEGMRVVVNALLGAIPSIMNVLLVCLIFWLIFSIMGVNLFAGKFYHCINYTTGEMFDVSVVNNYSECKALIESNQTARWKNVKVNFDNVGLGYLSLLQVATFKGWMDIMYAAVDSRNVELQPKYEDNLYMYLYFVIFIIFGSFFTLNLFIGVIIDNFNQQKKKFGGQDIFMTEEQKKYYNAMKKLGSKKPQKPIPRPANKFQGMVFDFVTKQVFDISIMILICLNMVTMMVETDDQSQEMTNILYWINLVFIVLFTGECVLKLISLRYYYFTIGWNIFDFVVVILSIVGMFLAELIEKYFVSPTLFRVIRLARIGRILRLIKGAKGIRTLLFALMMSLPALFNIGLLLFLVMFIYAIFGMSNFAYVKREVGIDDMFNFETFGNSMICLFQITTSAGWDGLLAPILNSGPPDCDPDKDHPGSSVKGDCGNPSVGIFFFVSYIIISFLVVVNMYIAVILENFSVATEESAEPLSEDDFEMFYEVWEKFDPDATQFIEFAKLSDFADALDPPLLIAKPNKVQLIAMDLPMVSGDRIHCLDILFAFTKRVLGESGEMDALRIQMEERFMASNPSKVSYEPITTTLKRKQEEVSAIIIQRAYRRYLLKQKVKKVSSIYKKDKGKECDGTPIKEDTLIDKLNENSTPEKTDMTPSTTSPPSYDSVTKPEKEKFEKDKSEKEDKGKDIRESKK

**Q.** What does the source list for `CC/C(=C(\c1ccc(O)cc1)c1ccc(OCCN(C)C)cc1)c1ccccc1` [4OH-Tam, 4-hydroxytamoxifen]?
**A.** IC50 [1]: 2.8 ± 0.16 µM; Average slope of the Hill fit, E227D, HEK cells ([1]; value in parentheses, error SD): 1.13 ± 0.1; IC50 (hNav1.2): 2.1 ± 0.14 µM; Average slope of the Hill fit, NaV1.2, HEK cells (hNav1.2; value in parentheses, error SD): 0.96 ± 0.1; IC50 [2]: 0.89 µM; IC50 [3]: 3.6 ± 0.14 µM; Loss in free energy of binding (ΔG°) [3]: 6.28 kJ/mol; Average slope of the Hill fit, D220E, HEK cells ([3]; value in parentheses, error SD): 1.17 ± 0.1; Potency in vivo as an anti-estrogen relative to tamoxifen [4]: 30- to 100 fold; IC50 (NavMs [5]): 0.297 ± 0.075 µM; Average slope of the Hill fit, NavMs, HEK cells (NavMs [5]; value in parentheses, error SD): 1.14 ± 0.1; Delay of rate of recovery from inactivation (τrec) following drug treatment (NavMs [6]): ~10 fold; INa inhibition with 7 ms vs 150 ms depolarization trains, times less (NavMs [6]): 3.4 times; Kinetics of INa inhibition (τon), times slower than cadmium (NavMs [6]): 16 times; Shift of voltage dependence of activation and inactivation (NavMs [6]): no significant shifts in either parameter

**Q.** For `CC/C(=C(/c1ccc(O)cc1)c1ccc(OCCN(C)C)cc1)c1ccccc1.Cl` [E-4OH-Tam, E-4-Hydroxytamoxifen hydrochloride], which “Average slope of the Hill fit, NaV1.2, HEK cells” value (hNav1.2; value in parentheses, error SD) is on record?
**A.** 0.94 ± 0.1

**Q.** What about the “Average slope of the Hill fit, NavMs, HEK cells” value (NavMs [5]; value in parentheses, error SD) of the same molecule?
**A.** 1.15 ± 0.1

**Q.** What does the source list for `CC/C(=C(\c1ccc(O)cc1)c1ccc(OCCNC)cc1)c1ccccc1` [Endoxifen]?
**A.** IC50 (hNav1.2): 3.1 ± 0.13 µM; Average slope of the Hill fit, NaV1.2, HEK cells (hNav1.2; value in parentheses, error SD): 0.97 ± 0.1; IC50 (NavMs [5]): 0.328 ± 0.089 µM; Average slope of the Hill fit, NavMs, HEK cells (NavMs [5]; value in parentheses, error SD): 1.09 ± 0.1

**Q.** What does the source list for `CC/C(=C(\c1ccccc1)c1ccc(OCCNC)cc1)c1ccccc1` [NM-Tam, N-desmethyltamoxifen]?
**A.** Average slope of the Hill fit, NaV1.2, HEK cells (hNav1.2): 3.2 ± 0.12 μM (0.96 ± 0.1); IC50 (hNav1.2; read-out: Potency of sodium current inhibition (IC50), NaV1.2, HEK cells): 3.2 µM; Affinity for ER, times lower than that of tamoxifen (ER): ~100 times; Average slope of the Hill fit, NavMs, HEK cells (NavMs [5]): 1.1 ± 0.16 μM (1.11 ± 0.1); IC50 (NavMs [5]; read-out: Potency of sodium current inhibition (IC50), NavMs, HEK cells): 1.1 µM

**Q.** For `CC/C(=C(\c1ccccc1)c1ccc(OCCN(C)C)cc1)c1ccccc1` [Tamoxifen], which “Average slope of the Hill fit, NaV1.2, HEK cells” value (hNav1.2) is on record?
**A.** 2.4 ± 0.11 μM (1.05 ± 0.1)

**Q.** And the IC50 (hNav1.2)?
**A.** 2.4 µM

**Q.** What does the source list for `CC/C(=C(\c1ccc(O)cc1)c1ccc(OCCN(C)C)cc1)c1ccccc1.Cl` [Z-4OH-Tam, Z-4-Hydroxytamoxifen hydrochloride]?
**A.** Average slope of the Hill fit, NaV1.2, HEK cells (hNav1.2; value in parentheses, error SD): 0.95 ± 0.1; Average slope of the Hill fit, NavMs, HEK cells (NavMs [5]; value in parentheses, error SD): 1.05 ± 0.1

**Q.** With “NavMs F208L mutant (NavMsL) (from UniProt A0L5S6 1-274) (natural protein)” as the molecule, how does the stoichiometry N [7] read?
**A.** 4
